Test results taken from patent US10124076B2, “Imaging agents and methods of use thereof” (Huntington Medical Research Institutes, priority 2007, dated 2018).

Key:
[1] = T1 relaxation time of the hyperpolarized product, experimentally determined; type: physicochemical
Protocol: Sub-second carbon imaging is greatly simplified when the signal of interest exceeds the background signal from natural abundance resonances. This is possible when a ^13C hyperpolarized agent is injected. […] Long T1 (in excess of ten seconds) is obtained for ^13C in small molecules at sites where there is no directly attached proton. Deuteration can be used to achieve this (e.g., glucose) and it occurs naturally for carbonyls. Enhancements in excess of 1000 from hyperpolarization are obtained in the first 5 T1 (i.e., imaging and spectroscopy experiment should be accomplished within 100-225 seconds after hyperpolarizing the molecules). For the molecules proposed, the hyperpolarization decays with a time constant of 20-45 seconds (T1 relaxation time of the agent) and therefore long scan times are not feasible. In order to overcome this problem, the inventors have successfully reprogrammed several fast imaging pulse sequences with multinuclear capability (multinuclear pulse sequences, broadband amplifier, and multinuclear coils).
Specifically, the inventors have identified four water soluble biomolecules for hyperpolarization. The four molecules can be either commercially obtained or custom synthesized. In the cases of hyperpolarization by PASADENA, both the precursors and the hydrogenated products are water soluble and the hydrogenation experiments have achieved high yields. T1 times were experimentally determined.

[2] = DNP hyperpolarization in HyperSense polarizer, 13C NMR decay of magnetization; settings: DNP hyperpolarized
Source text: FIG. 9. ^13C NMR spectrum of DNP hyperpolarized CD3 ^13COO^−Na using OX63 radical (Sample 1). The SNR from the spectral sequence depicted in FIG. 9 are shown in the corresponding table.
FIG. 10. 13C NMR spectrum of hyperpolarized CD3 ^13COO^−Na^+ using Finland radical (Sample 2). The SNR from the spectral sequence depicted in FIG. 10 are shown in the corresponding table.
C. A sample of the proposed molecule, Sodium ^13Cl-acetate-d3, was hyperpolarized in water with two different electron donors (FIGS. 9 & 10) in a DNP HyperSense polarizer, and the time course of the decay of the magnetization studied. The SNR obtained from the first spectrum collected from polarized sample 2 is clearly less than that obtained from sample 1, showing that Sodium acetate has a preference for the more polar radical OX63. Both OX63 and Finland are triaryl based radicals and are commercially available form Oxford Instruments, UK. Clearly, the inventors' molecule can render over 10,000 fold signal enhancement by DNP with very long T1 time. The polarization will survive around 325 seconds (5 T1). This allows a large enough time (>5 minutes) window to effectively monitor the first six minutes of uptake and metabolism of hyperpolarized sodium acetate within the glial cells of the rat brain by ^13C NMR.

Substance: 1-^13C glucose [perdeuterated 1-^13C of glucose]
- experimentally determined T1 ([1]; 1-13C of perdeuterated glucose): 20 s
- time window of observing the transfer of polarization (5 T1) ([1]; hyperpolarized glucose metabolized to TCA cycle metabolites): ~100 s

Substance: Sodium ^13Cl-acetate-d3
- polarization survival time (5 T1) [2]: around 325 seconds

Substance: ^13C1-^13C5 deuterated glutamine
- T1 of the Product ([1]; Table 2, product of PASADENA or DNP hyperpolarization): 40 s
